Measurements published in patent US9163007B2, “5-substituted indazoles as kinase inhibitors” (AbbVie Inc., priority 2007, dated 2015).

biological target: Cdc7/Dbf4 (Homo sapiens (Human), UniProt O00311); experiment: Cdc7 Inhibition Assay; format: biochemical; conditions: 6 data point; read-out: Ki (μM) 6 data point;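 also: reaction mixtures incubated 30 min on streptavidin-coated plates, then quantified by scintillation counting, with inhibition curves fitted by non-linear regression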
Sequence (O00311 whole entry): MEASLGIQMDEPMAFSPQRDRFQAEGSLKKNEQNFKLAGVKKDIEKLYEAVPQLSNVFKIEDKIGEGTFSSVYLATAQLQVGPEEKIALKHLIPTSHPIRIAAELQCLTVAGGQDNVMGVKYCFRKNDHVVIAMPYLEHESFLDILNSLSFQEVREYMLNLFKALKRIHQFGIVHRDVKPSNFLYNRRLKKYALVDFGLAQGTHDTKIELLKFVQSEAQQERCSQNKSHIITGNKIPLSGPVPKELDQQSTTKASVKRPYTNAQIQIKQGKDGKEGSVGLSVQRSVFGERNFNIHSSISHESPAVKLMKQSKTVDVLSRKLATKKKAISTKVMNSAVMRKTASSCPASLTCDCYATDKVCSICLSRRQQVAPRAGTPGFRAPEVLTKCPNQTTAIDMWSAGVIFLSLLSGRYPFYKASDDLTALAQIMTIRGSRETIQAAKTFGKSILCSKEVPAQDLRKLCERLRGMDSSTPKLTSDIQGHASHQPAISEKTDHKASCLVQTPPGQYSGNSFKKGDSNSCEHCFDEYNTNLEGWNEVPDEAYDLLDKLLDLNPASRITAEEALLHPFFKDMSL
Sequence (Q9UBU7 whole entry partner): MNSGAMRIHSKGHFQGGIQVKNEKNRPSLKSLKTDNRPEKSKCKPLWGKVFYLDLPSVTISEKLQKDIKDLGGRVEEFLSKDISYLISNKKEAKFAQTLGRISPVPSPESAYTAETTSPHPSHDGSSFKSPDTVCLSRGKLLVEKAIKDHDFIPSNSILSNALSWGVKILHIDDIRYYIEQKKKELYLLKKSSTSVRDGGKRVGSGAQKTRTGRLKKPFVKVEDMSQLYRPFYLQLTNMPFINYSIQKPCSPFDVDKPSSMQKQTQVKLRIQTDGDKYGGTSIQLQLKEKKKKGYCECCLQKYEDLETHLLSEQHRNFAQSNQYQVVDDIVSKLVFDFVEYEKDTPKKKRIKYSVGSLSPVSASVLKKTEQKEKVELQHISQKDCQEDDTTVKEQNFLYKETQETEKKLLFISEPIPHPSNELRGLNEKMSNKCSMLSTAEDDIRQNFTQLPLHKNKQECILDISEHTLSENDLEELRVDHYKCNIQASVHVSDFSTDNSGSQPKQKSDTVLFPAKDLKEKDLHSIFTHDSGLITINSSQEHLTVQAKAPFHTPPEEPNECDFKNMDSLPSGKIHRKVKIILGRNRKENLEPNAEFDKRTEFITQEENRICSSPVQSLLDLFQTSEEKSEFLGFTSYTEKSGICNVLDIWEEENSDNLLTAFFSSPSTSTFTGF
Procedure: The reactions were incubated for 30 minutes on streptavidin-coated plates, washed, and quantified using a TopCount scintillation plate reader (Packard). IC50 values are determined via non-linear regression fitting of the data.

Ki | Structure (SMILES)
> 1.23 µM | CC(=O)N1CCN(C(=O)c2c(-c3ccc4[nH]ncc4c3)nnn2Cc2ccccc2)CC1 [Example 255, 5-{5-[(4-acetylpiperazin-1-yl)carbonyl]-1-benzyl-1H-1,2,3-triazol-4-yl}-1H-indazole]
1.23 µM | NC1CCN(C(=O)c2c(-c3ccc4[nH]ncc4c3)nnn2Cc2ccccc2)CC1 [Example 197, 1-{[1-benzyl-4-(1H-indazol-5-yl)-1H-1,2,3-triazol-5-yl]carbonyl}piperidin-4-amine]
0.229 µM | O=C(c1cccc(Cl)c1)c1c(-c2ccc3[nH]ncc3c2)nnn1CC1CCOCC1 [Example 146, (3-chlorophenyl)[4-(1H-indazol-5-yl)-1-(tetrahydro-2H-pyran-4-ylmethyl)-1H-1,2,3-triazol-5-yl]methanone]
0.03 µM | Cc1ccccc1-c1c(-c2ccc3[nH]nc(N)c3c2)nnn1CC1CCOCC1 [Example 171, 5-[5-(2-methylphenyl)-1-(tetrahydro-2H-pyran-4-ylmethyl)-1H-1,2,3-triazol-4-yl]-1H-indazol-3-amine]
> 1.23 µM | CC1CN(C(=O)c2c(-c3ccc4[nH]ncc4c3)nnn2Cc2ccccc2)CC(C)O1 (stereo not drawn) [Example 254, 5-{1-benzyl-5-[(2,6-dimethylmorpholin-4-yl)carbonyl]-1H-1,2,3-triazol-4-yl}-1H-indazole]
> 1.23 µM | O=C(c1c(-c2ccc3[nH]ncc3c2)nnn1Cc1ccccc1)N1CCOCC1 [Example 172, 5-[1-benzyl-5-(morpholin-4-ylcarbonyl)-1H-1,2,3-triazol-4-yl]-1H-indazole]
> 1.23 µM | O=C(Nc1ccccc1)c1c(-c2ccc3[nH]ncc3c2)nnn1Cc1ccccc1 [Example 243, 1-benzyl-4-(1H-indazol-5-yl)-N-phenyl-1H-1,2,3-triazole-5-carboxamide]

same assay, conditions: 11 data point; read-out: Ki (μM) 11 data point

Ki | Structure (SMILES)
0.41 µM | CCS(=O)(=O)Nc1n[nH]c2ccc(-c3cn(Cc4ccccc4)nn3)cc12 [Example 320, N-[5-(1-benzyl-1H-1,2,3-triazol-4-yl)-1H-indazol-3-yl]ethanesulfonamide]
0.18 µM | O=C1CCCN1c1n[nH]c2ccc(-c3cn(Cc4ccccc4)nn3)cc12 [Example 323, 1-[5-(1-benzyl-1H-1,2,3-triazol-4-yl)-1H-indazol-3-yl]pyrrolidin-2-one]
0.14 µM | Clc1ccc(CNc2n[nH]c3ccc(-c4cn(Cc5ccccc5)nn4)cc23)cc1 [Example 412, 5-(1-benzyl-1H-1,2,3-triazol-4-yl)-N-(4-chlorobenzyl)-1H-indazol-3-amine]
> 1.23 µM | CN(C)CCC(=O)Nc1n[nH]c2ccc(-c3cn(Cc4ccccc4)nn3)cc12 [Example 311, N^1-[5-(1-benzyl-1H-1,2,3-triazol-4-yl)-1H-indazol-3-yl]-N^3,N^3-dimethyl-beta-alaninamide]
0.489 µM | Cn1ccnc1-c1n[nH]c2ccc(-c3cn(Cc4ccccc4)nn3)cc12 [Example 398, 5-(1-benzyl-1H-1,2,3-triazol-4-yl)-3-(1-methyl-1H-imidazol-2-yl)-1H-indazole]
0.57 µM | c1ccc(Cn2cc(-c3ccc4[nH]nc(NCC5CC5)c4c3)nn2)cc1 [Example 321, 5-(1-benzyl-1H-1,2,3-triazol-4-yl)-N-(cyclopropylmethyl)-1H-indazol-3-amine]
0.43 µM | Nc1n[nH]c2ccc(-c3nnn(Cc4ccc(C(F)(F)F)cc4)c3-c3ccc(F)cc3)cc12 [Example 150, 5-{5-(4-fluorophenyl)-1-[4-(trifluoromethyl)benzyl]-1H-1,2,3-triazol-4-yl}-1H-indazol-3-amine]
0.22 µM | c1ccc(Cn2cc(-c3ccc4[nH]nc(NCCN5CCOCC5)c4c3)nn2)cc1 [Example 407, 5-(1-benzyl-1H-1,2,3-triazol-4-yl)-N-(2-morpholin-4-ylethyl)-1H-indazol-3-amine]
0.258 µM | c1ccc(Cn2cc(-c3ccc4[nH]nc(-c5nccs5)c4c3)nn2)cc1 [Example 404, 5-(1-benzyl-1H-1,2,3-triazol-4-yl)-3-(1,3-thiazol-2-yl)-1H-indazole]
0.98 µM | O=S(=O)(Nc1n[nH]c2ccc(-c3nnn(Cc4ccccc4)c3C3CC3)cc12)c1ccc(Cl)cc1 [Example 220, N-[5-(1-benzyl-5-cyclopropyl-1H-1,2,3-triazol-4-yl)-1H-indazol-3-yl]-4-chlorobenzenesulfonamide]
0.35 µM | c1ccc(Cn2cc(-c3ccc4[nH]nc(NCC5CCCCC5)c4c3)nn2)cc1 [Example 417, 5-(1-benzyl-1H-1,2,3-triazol-4-yl)-N-(cyclohexylmethyl)-1H-indazol-3-amine]
0.5 µM | O=C(CNC1CCCCC1)Nc1n[nH]c2ccc(-c3cn(Cc4ccccc4)nn3)cc12 [Example 316, N^1-[5-(1-benzyl-1H-1,2,3-triazol-4-yl)-1H-indazol-3-yl]-N^2-cyclohexylglycinamide]
0.192 µM | c1ccc(-n2cc(-c3ccc4[nH]ncc4c3)nn2)cc1 [Example 418, 5-(1-phenyl-1H-1,2,3-triazol-4-yl)-1H-indazole]
0.065 µM | N#Cc1ccc(CNc2n[nH]c3ccc(-c4cn(Cc5ccccc5)nn4)cc23)cc1 [Example 415, 4-({[5-(1-benzyl-1H-1,2,3-triazol-4-yl)-1H-indazol-3-yl]amino}methyl)benzonitrile]
> 1.23 µM | O=S(=O)(Nc1n[nH]c2ccc(-c3nnn(Cc4ccccc4)c3C3CC3)cc12)c1ccccc1Cl [Example 218, N-[5-(1-benzyl-5-cyclopropyl-1H-1,2,3-triazol-4-yl)-1H-indazol-3-yl]-2-chlorobenzenesulfonamide]
> 1.23 µM | O=C(CNC1CCC1)Nc1n[nH]c2ccc(-c3cn(Cc4ccccc4)nn3)cc12 [Example 318, N^1-[5-(1-benzyl-1H-1,2,3-triazol-4-yl)-1H-indazol-3-yl]-N^2-cyclobutylglycinamide]
0.34 µM | O=S(=O)(Nc1n[nH]c2ccc(-c3nnn(Cc4ccccc4)c3-c3ccccc3)cc12)c1ccccc1 [Example 199, N-[5-(1-benzyl-5-phenyl-1H-1,2,3-triazol-4-yl)-1H-indazol-3-yl]benzenesulfonamide]
0.037 µM | Fc1ccc(CNc2n[nH]c3ccc(-c4cn(Cc5ccccc5)nn4)cc23)c(F)c1 [Example 416, 5-(1-benzyl-1H-1,2,3-triazol-4-yl)-N-(2,4-difluorobenzyl)-1H-indazol-3-amine]
1 µM | O=S(=O)(Nc1n[nH]c2ccc(-c3nnn(Cc4ccccc4)c3C3CC3)cc12)c1ccccc1 [Example 217, N-[5-(1-benzyl-5-cyclopropyl-1H-1,2,3-triazol-4-yl)-1H-indazol-3-yl]benzenesulfonamide]
0.681 µM | CN(C)C(=O)c1n[nH]c2ccc(-c3cn(Cc4ccccc4)nn3)cc12 [Example 396, 5-(1-benzyl-1H-1,2,3-triazol-4-yl)-N,N-dimethyl-1H-indazole-3-carboxamide]
0.0563 µM | Fc1ccc(Cn2cc(-c3ccc4[nH]ncc4c3)nn2)cc1 [Example 10, 5-[1-(4-fluorobenzyl)-1H-1,2,3-triazol-4-yl]-1H-indazole]
0.04 µM | CCCCNc1n[nH]c2ccc(-c3cn(Cc4ccccc4)nn3)cc12 [Example 410, 5-(1-benzyl-1H-1,2,3-triazol-4-yl)-N-butyl-1H-indazol-3-amine]
0.12 µM | c1ccc(CNc2n[nH]c3ccc(-c4cn(Cc5ccccc5)nn4)cc23)cc1 [Example 411, N-benzyl-5-(1-benzyl-1H-1,2,3-triazol-4-yl)-1H-indazol-3-amine]
